This is an account of results in US10913744B2, “LRRK2 inhibitors and methods of making and using the same” (Dana-Farber Cancer Institute, Inc., priority 2015, dated 2021).

By pIC50 is commonly meant the negative decadic logarithm of the IC50, by convention in mol/L.

For one experiment, the target named is LRRK2[G2019S] (Homo sapiens (Human), UniProt Q5S007, G2019S). Briefly: LRRK2 enzyme kinase assay, G2019S. The class given is biochemical.
The target in the next experiment is wild type LRRK2 (Homo sapiens (Human), UniProt Q5S007). Briefly: LRRK2 enzyme kinase assay, wild type. The class given is biochemical.
Experiment [1] concerns the target LRRK2 (Mus musculus (Mouse), UniProt Q5S006). As to the kind of experiment: Pharmacodynamic study, LRRK2 Ser910/Ser935 phosphorylation in mouse kidney, spleen and brain. The class given is in vivo.
Experiment [2] has as its system LRRK2. Conditions: G2019S LRRK2 transgenic mice, oral dosing; cited from earlier work.
The target of experiment [3] is GST-LRRK2[G2019S](1,326-2,527) (Homo sapiens (Human), UniProt Q5S007, G2019S). As to the kind of experiment: Nictide peptide kinase assay, 100 μM ATP. The class given is biochemical. Conditions: 20 μM Nictide. The protocol: (§1) Assay procedures are further discussed in Section 4 herein.
(§2) Samples were washed extensively and the incorporation of [γ-32P]ATP into Nictide was quantified by Cerenkov counting. IC50 values were calculated with GraphPad Prism using non-linear regression analysis.

Experiment [4] has as its target GST-LRRK2[A2016T](1326-2517) (Homo sapiens (Human), UniProt Q5S007, A2016T). As to the kind of experiment: Nictide peptide kinase assay, 100 μM ATP. The class given is biochemical. Conditions: 20 μM Nictide. Here is the method:
as §1, §2

Experiment [5] deals with GST-LRRK2[G2019S + A2016T](1,326-2,517) (Homo sapiens (Human), UniProt Q5S007, A2016T/G2019S). Briefly: Nictide peptide kinase assay, 100 μM ATP. It is filed as biochemical. The settings on record: 20 μM Nictide. Here is the method:
as §1, §2

The target of experiment [6] is GST-LRRK2(1,326-2,517) wild-type (Homo sapiens (Human), UniProt Q5S007). Briefly: Nictide peptide kinase assay, 100 μM ATP. Conditions: 20 μM Nictide. It is filed as biochemical. The protocol: as §1, §2
Where [7] appears, read: Table 1, ATP at Km 36 μm, read-out: Enzyme IC50 wt.
The mark [8] stands for this setting: Table 3, read-out: Enzyme IC50 WT.

pIC50: −log10 of the molar value. Where two headings read alike, the source gives them in different places.

Chain of wild type LRRK2 (Q5S007 1326-2527): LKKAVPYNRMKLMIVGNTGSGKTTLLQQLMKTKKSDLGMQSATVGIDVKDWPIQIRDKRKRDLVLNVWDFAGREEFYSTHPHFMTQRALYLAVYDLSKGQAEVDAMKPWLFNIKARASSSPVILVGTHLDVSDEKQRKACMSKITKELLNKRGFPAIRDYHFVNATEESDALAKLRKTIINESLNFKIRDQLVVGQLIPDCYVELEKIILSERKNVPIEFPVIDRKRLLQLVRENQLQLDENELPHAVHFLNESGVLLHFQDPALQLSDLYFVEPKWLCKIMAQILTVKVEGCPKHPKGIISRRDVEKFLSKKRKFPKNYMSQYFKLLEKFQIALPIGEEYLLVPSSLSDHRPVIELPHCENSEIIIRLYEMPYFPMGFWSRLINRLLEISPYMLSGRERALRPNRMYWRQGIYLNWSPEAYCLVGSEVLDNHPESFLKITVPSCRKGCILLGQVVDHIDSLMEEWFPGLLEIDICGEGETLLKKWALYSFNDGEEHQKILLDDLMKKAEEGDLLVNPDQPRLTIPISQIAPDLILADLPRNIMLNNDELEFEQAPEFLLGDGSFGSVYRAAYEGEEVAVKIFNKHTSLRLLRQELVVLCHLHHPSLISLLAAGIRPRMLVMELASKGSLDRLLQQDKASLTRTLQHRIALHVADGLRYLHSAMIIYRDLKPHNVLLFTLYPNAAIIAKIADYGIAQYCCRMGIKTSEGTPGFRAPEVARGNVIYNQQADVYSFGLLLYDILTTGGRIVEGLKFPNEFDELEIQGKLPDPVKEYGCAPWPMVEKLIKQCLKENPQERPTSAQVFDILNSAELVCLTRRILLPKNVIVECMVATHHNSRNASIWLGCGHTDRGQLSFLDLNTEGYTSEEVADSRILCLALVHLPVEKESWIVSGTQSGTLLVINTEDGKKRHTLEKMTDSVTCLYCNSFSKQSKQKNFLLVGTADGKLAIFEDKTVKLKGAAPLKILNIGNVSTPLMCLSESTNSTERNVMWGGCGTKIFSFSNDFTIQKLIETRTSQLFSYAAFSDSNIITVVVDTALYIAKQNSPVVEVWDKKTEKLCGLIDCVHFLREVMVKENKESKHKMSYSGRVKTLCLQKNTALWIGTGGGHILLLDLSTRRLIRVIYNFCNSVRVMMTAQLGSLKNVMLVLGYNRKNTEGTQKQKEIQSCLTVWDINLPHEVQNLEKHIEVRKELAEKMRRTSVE
Chain of LRRK2[G2019S] (Q5S007 1326-2527 G2019S): as the sequence (Q5S007 1326-2527) above, with G694S counted along it
Chain of GST-LRRK2(1,326-2,517) wild-type (Q5S007 1326-2527): as the sequence (Q5S007 1326-2527) above
Chain of GST-LRRK2[A2016T](1326-2517) (Q5S007 1326-2527 A2016T): as the sequence (Q5S007 1326-2527) above, with A691T counted along it
Chain of GST-LRRK2[G2019S + A2016T](1,326-2,517) (Q5S007 1326-2527 A2016T/G2019S): as the sequence (Q5S007 1326-2527) above, with A691T, G694S counted along it
Chain of LRRK2 (Mus musculus (Mouse), UniProt Q5S006) (Q5S006 whole entry, looked up): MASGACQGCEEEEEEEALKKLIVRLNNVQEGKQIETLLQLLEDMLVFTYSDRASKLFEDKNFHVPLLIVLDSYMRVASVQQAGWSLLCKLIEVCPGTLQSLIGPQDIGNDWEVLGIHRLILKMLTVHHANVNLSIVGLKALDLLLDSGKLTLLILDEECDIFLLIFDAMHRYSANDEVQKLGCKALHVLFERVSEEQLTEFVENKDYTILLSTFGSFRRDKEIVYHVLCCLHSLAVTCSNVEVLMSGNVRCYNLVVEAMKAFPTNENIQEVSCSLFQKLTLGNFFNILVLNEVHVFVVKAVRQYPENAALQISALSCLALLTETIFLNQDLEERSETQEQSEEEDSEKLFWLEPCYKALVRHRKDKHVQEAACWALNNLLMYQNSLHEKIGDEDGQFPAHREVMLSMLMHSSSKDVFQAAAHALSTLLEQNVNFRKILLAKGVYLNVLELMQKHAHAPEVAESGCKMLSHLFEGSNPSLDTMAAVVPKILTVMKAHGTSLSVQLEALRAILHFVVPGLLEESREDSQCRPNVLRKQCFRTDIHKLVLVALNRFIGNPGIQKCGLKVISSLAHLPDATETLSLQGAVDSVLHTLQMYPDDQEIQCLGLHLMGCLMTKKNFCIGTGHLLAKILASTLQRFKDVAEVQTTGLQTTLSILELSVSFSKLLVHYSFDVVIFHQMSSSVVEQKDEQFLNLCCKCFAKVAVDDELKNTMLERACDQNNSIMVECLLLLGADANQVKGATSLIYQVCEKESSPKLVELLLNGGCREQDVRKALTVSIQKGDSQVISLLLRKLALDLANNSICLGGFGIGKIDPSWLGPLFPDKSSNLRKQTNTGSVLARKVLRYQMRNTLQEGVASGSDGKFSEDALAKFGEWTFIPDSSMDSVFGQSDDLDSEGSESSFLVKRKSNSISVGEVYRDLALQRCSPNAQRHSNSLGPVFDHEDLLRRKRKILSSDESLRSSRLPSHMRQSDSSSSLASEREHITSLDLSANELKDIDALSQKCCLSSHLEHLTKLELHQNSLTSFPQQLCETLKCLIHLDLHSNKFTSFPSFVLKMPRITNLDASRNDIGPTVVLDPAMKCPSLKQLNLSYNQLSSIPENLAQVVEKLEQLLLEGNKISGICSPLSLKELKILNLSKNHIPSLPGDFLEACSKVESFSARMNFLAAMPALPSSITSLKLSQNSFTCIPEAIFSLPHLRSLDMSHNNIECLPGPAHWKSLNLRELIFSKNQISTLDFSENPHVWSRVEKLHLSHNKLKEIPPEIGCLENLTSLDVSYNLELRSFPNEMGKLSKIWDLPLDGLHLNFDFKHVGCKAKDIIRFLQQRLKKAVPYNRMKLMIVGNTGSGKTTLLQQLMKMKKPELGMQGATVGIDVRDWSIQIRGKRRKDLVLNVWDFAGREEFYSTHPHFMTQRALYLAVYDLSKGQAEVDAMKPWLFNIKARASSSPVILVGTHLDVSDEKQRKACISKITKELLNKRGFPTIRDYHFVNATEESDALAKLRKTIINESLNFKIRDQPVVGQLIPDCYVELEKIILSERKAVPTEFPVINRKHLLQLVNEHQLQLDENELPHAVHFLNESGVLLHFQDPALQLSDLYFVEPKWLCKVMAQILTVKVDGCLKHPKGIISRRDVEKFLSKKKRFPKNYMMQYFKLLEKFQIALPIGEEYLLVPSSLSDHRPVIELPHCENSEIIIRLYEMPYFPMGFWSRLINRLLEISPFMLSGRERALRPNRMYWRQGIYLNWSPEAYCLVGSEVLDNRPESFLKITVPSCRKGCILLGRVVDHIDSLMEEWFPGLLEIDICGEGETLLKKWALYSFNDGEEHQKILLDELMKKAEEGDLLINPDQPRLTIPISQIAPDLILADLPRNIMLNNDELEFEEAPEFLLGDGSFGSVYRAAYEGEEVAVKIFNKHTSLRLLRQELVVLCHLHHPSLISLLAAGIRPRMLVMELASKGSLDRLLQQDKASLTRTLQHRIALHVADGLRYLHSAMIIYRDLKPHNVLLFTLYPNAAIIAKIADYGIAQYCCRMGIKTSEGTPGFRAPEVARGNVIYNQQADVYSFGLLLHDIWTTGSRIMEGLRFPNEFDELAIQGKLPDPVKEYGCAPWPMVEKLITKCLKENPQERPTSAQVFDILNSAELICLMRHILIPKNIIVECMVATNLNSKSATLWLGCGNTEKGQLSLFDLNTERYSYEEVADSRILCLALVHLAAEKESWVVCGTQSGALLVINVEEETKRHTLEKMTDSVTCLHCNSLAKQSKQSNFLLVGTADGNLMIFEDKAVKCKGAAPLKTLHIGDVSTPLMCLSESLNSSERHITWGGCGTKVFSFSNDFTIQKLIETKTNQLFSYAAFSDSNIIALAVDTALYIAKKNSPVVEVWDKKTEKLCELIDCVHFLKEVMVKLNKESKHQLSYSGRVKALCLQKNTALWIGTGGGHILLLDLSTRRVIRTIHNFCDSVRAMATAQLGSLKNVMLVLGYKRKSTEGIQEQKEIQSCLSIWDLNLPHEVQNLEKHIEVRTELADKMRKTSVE
Chain of GST-LRRK2[G2019S](1,326-2,527) (Q5S007 1326-2527 G2019S): as the sequence (Q5S007 1326-2527) above, with G694S counted along it

As for `COc1cc(C(=O)N2CCOCC2)ccc1Nc1nc(OC)c2cc[nH]c2n1` [Compound 9, (3-methoxy-4-((4-methoxy-7H-pyrrolo[2,3-d]pyrimidin-2-yl)amino)phenyl) (morpholino)methanone], the pIC50 against LRRK2[G2019S] (Table 1, ATP at Km 112 μm) is 7.02; on wild type LRRK2 (setting [7]) it was 7.87.
As to `COc1cc(C(=O)N2CCOCC2)ccc1Nc1ncc2cc[nH]c2n1` [Compound 10], the pIC50 on LRRK2[G2019S] (Table 1, ATP at Km 112 μm) was 7.40; at wild type LRRK2 (setting [7]) it was 7.47.
The like results for `COCCNc1nc(Nc2ccc(C(=O)N3CCOCC3)cc2OC)nc2[nH]ccc12` [Compound 11] were, in that order, 8.52 and 8.40.
For `CCNc1nc(Nc2ccc(C(=O)N3CCOCC3)cc2OC)nc2[nH]ccc12` [Compound 12], the pIC50 on LRRK2[G2019S] (Table 1, ATP at Km 112 μm) is 8.60; on wild type LRRK2 (setting [7]) it was 8.96.
On to `CCCNc1nc(Nc2ccc(C(=O)N3CCOCC3)cc2OC)nc2[nH]ccc12` [Compound 13], for which the pIC50 is 8.62 at LRRK2[G2019S] (Table 1, ATP at Km 112 μm) and 8.80 at wild type LRRK2 (setting [7]).
For `COc1cc(C(=O)N2CCOCC2)ccc1Nc1nc(NCC2CCCO2)c2cc[nH]c2n1` (stereo not shown) [Compound 14], the pIC50 against LRRK2[G2019S] (Table 1, ATP at Km 112 μm) was 8.36; on wild type LRRK2 (setting [7]), 8.48.
The like results for `COc1cc(C(=O)N2CCOCC2)ccc1Nc1nc(NC2CC2)c2cc[nH]c2n1` [Compound 15] were, in that order, 8.33 and 8.62.
The corresponding values for `CNc1nc(Nc2cc(F)c(C(=O)N3CCOCC3)cc2OC)nc2[nH]ccc12` [Compound 16] are 8.15 and 8.68.
Turning to `COc1cc(C(=O)N2CCOCC2)ccc1Nc1ncc2c(Cl)c[nH]c2n1` [Compound 17], the pIC50 against LRRK2[G2019S] (Table 1, ATP at Km 112 μm) was 6.97; at wild type LRRK2 (setting [7]) it was 6.80.
The corresponding values for `CCNc1nc(Nc2ccc(C(=O)N3CCOCC3)cc2OC)nc2[nH]cc(Cl)c12` [Compound 19] are 8.36 and 8.85.
The corresponding values for `CCCNc1nc(Nc2ccc(C(=O)N3CCOCC3)cc2OC)nc2[nH]cc(Cl)c12` [Compound 20] are 7.91 and 8.11.
On to `CNc1nc(Nc2ccc(C(=O)N3CCOCC3)cc2OC)nc2[nH]cnc12` [Compound 21, (3-methoxy-4-((6-(methylamino)-9H-purin-2-yl)amino)phenyl)(morpholino) methanone], for which the pIC50 against LRRK2[G2019S] (Table 3) was 7.36; on wild type LRRK2 (setting [8]), 7.46.
In the case of `COc1cc(C(=O)N2CCOCC2)ccc1Nc1nc(OC)c2nc[nH]c2n1` [Compound 22, (3-methoxy-4-((6-methoxy-9H-purin-2-yl)amino)phenyl)(morpholino)methanone], the pIC50 at LRRK2[G2019S] (Table 3) and on wild type LRRK2 (setting [8]) was 8.52 in each case.
For `COc1cc(C(=O)N2CCOCC2)ccc1Nc1nc(OC)c2cn[nH]c2n1` [Compound 24, (3-methoxy-4-((4-methoxy-1H-pyrazolo[3,4-d]pyrimidin-6-yl)amino)phenyl) (morpholino)methanone], the pIC50 was 7.73 on LRRK2[G2019S] (Table 3) and 7.71 on wild type LRRK2 (setting [8]).
For `CCNc1nc(Nc2cc(F)c(C(=O)N3CCOCC3)cc2OC)ncc1C(F)(F)F` [GNE7915, reference compound], the “dephosphorylation of Ser935 of LRRK2 in kidney, spleen and brain” value on LRRK2 [1] (100 mg/kg, intraperitoneal) is recorded as “near complete dephosphorylation of Ser935 of LRRK2”. The “dose at which complete inhibition in brain was observed” value at LRRK2 [1] (doses 10, 30, 50, 100 mg/kg) is on record as 100 mg/kg. Besides, the “reduction of LRRK2 activity in brain (Ser935 phosphorylation)” value (“reduction of LRRK2 activity in brain” for short) in the experiment with LRRK2 [2] is “significantly reduce LRRK2 activity in the brain”.
`O=C(Nc1cccnc1)c1cc(-c2ccnc(F)c2)ccc1OCc1ccccc1` [GSK2578215A]: the pIC50 in experiment [3] was 8.05; in experiment [4], 7.09; in experiment [5], 7.21; in experiment [6], 7.96.
For `CNc1nc(Nc2ccc(C(=O)N3CCOCC3)cc2OC)ncc1Cl` [HG-10-102-01], in the experiment on LRRK2 [2], the “reduction of LRRK2 activity in brain” value is given as “significantly reduce LRRK2 activity in the brain”.
As to `COc1cc(C(=O)N2CCC(N3CCN(C)CC3)CC2)ccc1Nc1ncc2c(n1)N(C)c1ccccc1C(=O)N2C` [LRRK2-IN-1], the pIC50 in experiment [3] is 8.22; in experiment [4], 5.61; in experiment [5] it was 5.51; in experiment [6] it was 7.89.
Take `N#Cc1cccc(-c2c[nH]c3ncnc(N4CCOCC4)c23)c1` [PF-06447474]: in the experiment with LRRK2 [2], the “reduction of LRRK2 activity in brain” value is “capable of reducing LRRK2 activity in the brain”.
In the case of “(3-methoxy-4-((4-(methylamino)-1H-pyrazolo[3,4-d]pyrimidin-6-yl)amino)phenyl)(morpholino)methanone [Compound 23]”, the pIC50 at LRRK2[G2019S] (Table 3) was 8.40; at wild type LRRK2 (setting [8]), 7.94.
